Entries after “also recorded” stand apart in the source; their conditions may differ.
How the values were obtained:
[1] = test system: aqueous peroxyl radicals generated by AAPH in human plasma; assay: Consumption of endogenous plasma antioxidants induced by AAPH (HPLC); conditions: for percentage remaining / Residual Amount (%): AAPH 20 mM for 120 min, no EGCG (control); for time to complete consumption in plasma: 20 mM AAPH, 37° C
Description: In a second similar experiment, other antioxidants were studied. […] Echinenone in ethanol was added as an internal standard.

[2] = test system: lipid plasma compartment oxidation; assay: Lipid plasma compartment oxidation, BODIPY 581/591 green fluorescence; conditions: 2 mM initiator, 37° C
Description: Plasma oxidation was measured fluorometrically using two different fluorescent probes: DCFH and BODIPY. DCFH-DA and BODIPY stock solutions were prepared in EtOH and dimethylsulfoxide, respectively, stored under nitrogen at −20° C. and used within two months. The final plasma dilution was 1:5 (v/v).
In the experiments using β-carotene, to avoid the filtering effect due to the carotenoid, the oxidation product of BODIPY was also detected at λex=520 and at λem-540 nm. The fluorescence measurements were carried out using a Perkin Elmer spectrofluorometer (model 650-10s) with 1 cm path length fluorescence cuvettes.
Briefly, β-carotene (dissolved in stabilized THF, 10 mg/ml) or α-tocopherol (4.3 mg/ml in EtOH) were added to plasma to reach a final concentration of 50 μM; the samples were then vortexed for 30 sec and incubated at 37±1° C. for 1 to 6 hr under nitrogen. […] Controls were prepared in the same way using solvent only.
The effect of adding the membrane soluble antioxidants, α-tocopherol (in EtOH) and β-carotene (in THF), pre-incubated with plasma, was studied. […] Values are mean±SD of five independent experiments. Statistical analysis: one-way ANOVA with Tukey's post test; *p<0.05, **p<0.01.
To monitor the aqueous phase oxidizability, AAPH was used as a hydrophilic radical generator and coupled to DCFH was used as the indicator.

[3] = test system: lipid peroxyl radicals generated by MeO-AMVN in human plasma; assay: Consumption of endogenous plasma antioxidants induced by MeO-AMVN (HPLC); conditions: for time to total disappearance in plasma: human plasma 1:5 with PBS, 37° C
Description: After an overnight fast (10-12 h), blood from two healthy donors was collected in ethylenediaminetetraacetic acid (EDTA)-containing tubes. In order to reduce the variability of different donors, blood samples from these two subjects were collected weekly for the duration of the experiment. Immediately after collection, the samples were placed on ice and protected from light. Plasma was obtained by centrifugation at 800 g for 20 min at 4° C. and immediately used for the in vitro studies.
In the presence of 10-20 mM of AAPH, the flux of aqueous radicals calculated on the basis of the known rate of free radical generation from AAPH at 37° C.
In order to obtain homogeneous incorporation, the lipid soluble initiators were added slowly to the samples with a micro-syringe (10 μl) with stirring. The samples were then vortexed for 10 sec and incubated at 37±1° C. under aerobic conditions.
In a second similar experiment, other antioxidants were studied. […] A 100 μl aliquot of the reaction mixture was extracted for β-carotene and α-tocopherol analysis. Echinenone in ethanol was added as an internal standard. The mixture was extracted with CHCl3:CH3OH (2:1 v/v) containing 0.2% BHT and hexane containing 0.1% BHT, dried under nitrogen, redissolved in ethanol, and injected into an HPLC system with a C30 column (3 μm, 150×4.6 mm, YMC, Wilmington, N.C.).
For water-soluble antioxidant measurement, the mixtures were immediately deproteinized with perchloric acid (250 mM).
Results are expressed as percentages with respect to control samples prepared without the azo-compounds.

[4] = ESR quenching of α-tocopheroxyl radical generated from α-tocopherol and DPPH; assay type: biochemical; conditions: unit inferred; read-out: IC50 quenching of α-TOC-O. ESR signal
Description: α-TOC+DPPH→α-TOC-O.+DPPHH [1]
For sample preparation, α-tocopherol (900 μM) and DPPH (600 μM) in ethanol solution were mixed for 20 sec and 50 μl of the reaction mixture transferred into a capillary ESR tube. (−)-Epigallocatechin-(3)-gallate (EGCG) was added to the mixture immediately after DPPH decolorization (30 sec after DPPH addition).

[5] = E(EGCG-O., H+/EGCG-OH); E(A−., H+/AH−); cited from earlier work
[6] = test system: oxidation of lipid compartment of plasma; assay: Lipid compartment oxidizability of plasma with BHT standard (MeO-AMVN, BODIPY 581/591); conditions: for Green Fluorescence, 25 μM: equals Plasma minus Plasma + BHT
Description: In order to standardize the method to determine the lipophilic antioxidant capacity, butylated hydroxytoluene (BHT), a phenolic synthetic antioxidant, was chosen as an internal standard. Polyenes and certain foods were packaged with added BHT to protect against oxidation. Plasma was incubated with BODIPY 581/591 in the presence and absence of BHT (25 & 50 µM) at 37° C. for 30 min, and determined for oxidizability in the lipid compartment. There was no significant difference among incubation times of 30 min, 1 hr and 2 hr, on the incorporation of BHT in the lipid compartment of plasma (FIG. 14). […] The concentration of BHT may also be reduced to a level sufficient to produce a detectable signal.

[7] = Subject 1, 2 hr incubation w/1 mM MeO-AMVN
[8] = Subject 1, 3 hr incubation w/1 mM MeO-AMVN
[9] = Subject 2, 2 hr incubation w/1 mM MeO-AMVN
[10] = Subject 2, 3 hr incubation w/1 mM MeO-AMVN
[11] = Subject 3, 2 hr incubation w/1 mM MeO-AMVN
[12] = Subject 3, 3 hr incubation w/1 mM MeO-AMVN

CC1=C(/C=C/C(C)=C/C=C/C(C)=C/C=C/C=C(C)/C=C/C=C(C)/C=C/C2=C(C)C[C@@H](O)CC2(C)C)C(C)(C)C[C@H](O)C1 [Zeaxanthin, zeaxanthin]
percentage remaining / Residual Amount (%) [1]: 17.50 ± 5.98% | percentage remaining / Residual Amount (%) ([1]; listed as zeaxanthin): 17.50±5.98%

CC1=C[C@H](O)CC(C)(C)[C@H]1/C=C/C(C)=C/C=C/C(C)=C/C=C/C=C(C)/C=C/C=C(C)/C=C/C1=C(C)C[C@@H](O)CC1(C)C [Lutein, lutein]
percentage remaining / Residual Amount (%) [1]: 12.82 ± 4.85% | percentage remaining / Residual Amount (%) ([1]; listed as lutein): 12.82±4.85%

CC(C)CC(C)(C#N)N=NC(C)(C#N)CC(C)C (stereo not shown) [AMVN, 2,2′-azobis(2,4-dimethylvaleronitrile)]
change in BODIPY fluorescence in plasma [2]: no observed changes; also recorded: No change

CC1=C(/C=C/C(C)=C/C=C/C(C)=C/C=C/C=C(C)/C=C/C=C(C)/C=C/C2=C(C)C[C@@H](O)CC2(C)C)C(C)(C)CCC1 [Cryptoxanthin, cryptoxanthin]
percentage remaining / Residual Amount (%) [1]: 18.94 ± 3.86% | percentage remaining / Residual Amount (%) ([1]; listed as cryptoxanthin): 18.94±3.86%

O=c1[nH]c(=O)c2[nH]c(=O)[nH]c2[nH]1 [uric acid]
time to complete consumption in plasma ([1]; human plasma 1:5 with PBS): ≤ 180 min | time to total disappearance in plasma ([3]; 2 mM MeO-AMVN): 300 min

CC1=C(/C=C/C(C)=C/C=C/C(C)=C/C=C/C=C(C)/C=C/C=C(C)/C=C/C2=C(C)CCCC2(C)C)C(C)(C)CCC1 [β-Carotene, β-carotene]
percentage remaining / Residual Amount (%) [1]: 28.89±6.17%

O=C1O[C@H]([C@@H](O)CO)C(O)=C1O [ascorbic acid]
time to complete consumption in plasma ([1]; human plasma 1:5 with PBS): ≤ 15 min | IC50 [4]: 14.2 µM | redox potential E [5]: 0.28 V | time to total disappearance in plasma ([3]; 2 mM MeO-AMVN): 30 min

CC(C)=CCC/C(C)=C/C=C/C(C)=C/C=C/C(C)=C/C=C/C=C(C)/C=C/C=C(C)/C=C/C=C(\C)CCC=C(C)C [Lycopene, lycopene]
percentage remaining / Residual Amount (%) [1]: 8.49 ± 5.20% | percentage remaining / Residual Amount (%) ([1]; listed as lycopene): 8.49±5.20%

Cc1c(C)c2c(c(C)c1O)CC[C@@](C)(CCC[C@H](C)CCC[C@H](C)CCCC(C)C)O2 [α-tocopherol]
time to almost complete consumption in plasma ([1]; 10-20 mM AAPH, human plasma 1:5 with PBS): ≤ 30 min | percentage remaining / Residual Amount (%) [1]: 3.86±0.94% | time to almost total depletion ([3]; 2 mM MeO-AMVN): 60 min | content reduced by ([3]; 2 mM MeO-AMVN, at 30 min): 42% | % α-tocopherol remaining ([3]; control without EGCG, MeO-AMVN): 16.43±1.72%

Cc1cc(C(C)(C)C)c(O)c(C(C)(C)C)c1 [BHT, butylated hydroxytoluene]
protection of oxidation of lipid compartment ([6]; BHT added to plasma): 78% | Green Fluorescence, Plasma + BHT [6, 7]: 107 ± 1.4 | Green Fluorescence, 25 μM [6, 7]: 382 | Green Fluorescence, Plasma + BHT [6, 8]: 217 ± 4.0 | Green Fluorescence, 25 μM [6, 8]: 806 | Green Fluorescence, Plasma + BHT [6, 9]: 123 ± 7.3 | Green Fluorescence, 25 μM [6, 9]: 347 | Green Fluorescence, Plasma + BHT [6, 10]: 223 ± 8.9 | Green Fluorescence, 25 μM [6, 10]: 650 | Green Fluorescence, Plasma + BHT [6, 11]: 142 ± 8.0 | Green Fluorescence, 25 μM [6, 11]: 245 | Green Fluorescence, Plasma + BHT [6, 12]: 250 ± 13.3 | Green Fluorescence, 25 μM [6, 12]: 551
